≈ marks a conversion by molar mass, not a printed value.
Assays:
[1] = molecular target: MMP-13 catalytic domain (MMP-13CD) (Homo sapiens, UniProt P45452); experiment: Thiopeptolide hydrolysis inhibition assay, MMP-13 catalytic domain; type: biochemical; conditions: thiopeptolide substrate, HEPES pH 7.0, 22° C.
Text: (§1) In general, the MMP inhibition assays measure the amount by which a test compound reduces the hydrolysis of a thiopeptolide substrate catalyzed by a matrix metalloproteinase enzyme. Such assays are described in detail by Ye et al., in Biochemistry, 1992;31(45):11231-11235, which is incorporated herein by reference.
Some of the particular methods described below use the catalytic domain of the MMP-13 enzyme, namely matrix metalloproteinase-13 catalytic domain (“MMP-13CD”), rather than the corresponding full-length enzyme, MMP-13. It has been shown previously by Ye Qi-Zhuang, Hupe D., and Johnson L. (Current Medicinal Chemistry, 1996;3:407418) that inhibitor activity against a catalytic domain of an MMP is predictive of the inhibitor activity against the respective full-length MMP enzyme.
(§2) Thiopeptolide substrates show virtually no decomposition or hydrolysis at or below neutral pH in the absence of a matrix metalloproteinase enzyme. A typical thiopeptolide substrate commonly utilized for assays is Ac-Pro-Leu-Gly-thioester-Leu-Leu-Gly-OEt. A 100 μL assay mixture will contain 50 mM of N-2-hydroxyethylpiperazine-N′-2-ethanesulfonic acid buffer (“HEPES,” pH 7.0), 10 mM CaCl2, 100 μM thiopeptolide substrate, and 1 mM 5,5′-dithio-bis-(2-nitro-benzoic acid) (DTNB). The thiopeptolide substrate concentration may be varied, for example from 10 to 800 μM to obtain Km and Kcat values. The change in absorbance at 405 nm is monitored on a Thermo Max microplate reader (molecular Devices, Menlo Park, Calif.) at room temperature (22° C.). The calculation of the amount of hydrolysis of the thiopeptolide substrate is based on E412=13600 M^−1 cm^−1 for the DTNB-derived product 3-carboxy-4-nitrothiophenoxide. Assays are carried out with and without matrix metalloproteinase inhibitor compounds, and the amount of hydrolysis is compared for a determination of inhibitory activity of the test compounds.
(§3) Test compounds were evaluated at various concentrations in order to determine their respective IC50 values, the micromolar concentration of compound required to cause a 50% inhibition of catalytic activity of the respective enzyme.

[2] = Solubility in pH 6.5 aqueous phosphate buffer (Chemical Method 1, PDS solubility); type: physicochemical; conditions: thermodynamic from solid; saturated solution in pH 6.5 aqueous phosphate buffer, 5% glyme, UV-visible absorbance
Procedure: Solubility of a test compound of the present invention refers to solubility of the compound in a solvent mixture containing ethylene glycol dimethylether (“glyme”) and pH 6.5 aqueous phosphate buffer. The solubility was determined by measuring ultraviolet-visible absorbance of a saturated solution of the compound and comparing the absorbance value to absorbance values obtained for four standard solutions of the compound having known concentrations plotted on a 4-point ultraviolet-visible standard curve.
First, a saturated solution of the test compound of the present invention was prepared by adding from about 2- to about 5-mg of the compound to a 96-well plate and adding a volume of pH 6.5 aqueous phosphate buffer, sonicating the mixture for about 10 minutes, and then allowing it to equilibrate overnight (typically 12 to 24 hours). The saturated solution was visually inspected to ensure the presence of particles, and then filtered to give a filtrate of the saturated solution. The filtrate of the saturated solution and a blank (pH 6.5 aqueous phosphate buffer containing no test compound) were then transferred into separate wells in a 96-well UV-transparent disposable plate, and a small amount of glyme was added to each well to give 5% glyme concentration per well.
Standard solutions of the test compound were prepared by dissolving a known amount of the test compound in a known volume of 75/25 volume/volume (“v/v”) glyme/water, and diluting this solution into four different concentrations in 96-well plates with additional 75/25 v/v glyme/water. Then, aliquots from each of the four standard solutions were also transferred to the 96-well UV-transparent disposable plate containing pH 6.5 aqueous phosphate buffer until the glyme concentration in each well was 5%.
The prepared 96-well plate was transferred to a 96-well ultraviolet-visible plate reader, and the wells were scanned over wavelengths of from 220 nm to 350 nm with a step size of 2 nm. The ultraviolet-visible data (i.e., data generated at the same wavelength) were electronically exported to a spreadsheet and absorbance data for the filtrate of the saturated solution measured at one wavelength (i.e., the data that had the best linear fit as calculated by the highest regression coefficient, typically 0.98 or higher) and the corresponding standards absorbance data measured at the same wavelength were plotted as a standard absorbance-concentration curve based on the Lambert-Beer law. The solubility (i.e., saturation concentration) was then back calculated by comparing the absorbance of the filtrate of the saturated solution to the absorbance of the standard solutions of known concentrations at the same wavelength.

MMP-1 full-length = molecular target: T1, MMP-1 full-length (Homo sapiens, UniProt P03956); experiment: Thiopeptolide hydrolysis inhibition assay, MMP-1 full-length; type: biochemical; conditions: thiopeptolide substrate; read-out: MMP-1FL IC50
T1 construct: have been assayed with MMP-1 full-length
T1 sequence (P03956 100-469): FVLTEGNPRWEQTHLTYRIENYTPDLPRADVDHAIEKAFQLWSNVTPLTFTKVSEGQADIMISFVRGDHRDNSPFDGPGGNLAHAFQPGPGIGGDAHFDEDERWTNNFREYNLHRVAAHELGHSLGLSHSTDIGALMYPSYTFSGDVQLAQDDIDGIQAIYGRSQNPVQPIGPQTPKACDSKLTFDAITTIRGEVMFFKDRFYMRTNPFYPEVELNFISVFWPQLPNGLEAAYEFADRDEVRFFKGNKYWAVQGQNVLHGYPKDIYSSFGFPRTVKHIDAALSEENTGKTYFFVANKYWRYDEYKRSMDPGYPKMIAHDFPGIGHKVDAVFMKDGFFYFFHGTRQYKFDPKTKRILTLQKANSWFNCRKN
Text: as §1, §2, §3
(§4) The test described above for the inhibition of MMP-13 may also be adapted and used to determine the ability of the compounds of formula (I) to inhibit the matrix metalloproteases MMP-1, MMP-2, MMP-3, MMP-7, MMP-9, MMP-12, MMP-14, and MMP-17.
(§5) Certain compounds of formula (I) have been assayed with MMP-1 full-length, MMP-2 full-length, MMP-3 catalytic domain, MMP-7 full-length, MMP-8 catalytic domain, MMP-9 full-length, and MMP-12 catalytic domain.

MMP-2 full-length = molecular target: T2, MMP-2 full-length (Homo sapiens, UniProt P08253); experiment: Thiopeptolide hydrolysis inhibition assay, MMP-2 full-length; type: biochemical; conditions: thiopeptolide substrate; read-out: MMP-2FL IC50
T2 construct: MMP-2 full-length
T2 sequence (P08253 110-660): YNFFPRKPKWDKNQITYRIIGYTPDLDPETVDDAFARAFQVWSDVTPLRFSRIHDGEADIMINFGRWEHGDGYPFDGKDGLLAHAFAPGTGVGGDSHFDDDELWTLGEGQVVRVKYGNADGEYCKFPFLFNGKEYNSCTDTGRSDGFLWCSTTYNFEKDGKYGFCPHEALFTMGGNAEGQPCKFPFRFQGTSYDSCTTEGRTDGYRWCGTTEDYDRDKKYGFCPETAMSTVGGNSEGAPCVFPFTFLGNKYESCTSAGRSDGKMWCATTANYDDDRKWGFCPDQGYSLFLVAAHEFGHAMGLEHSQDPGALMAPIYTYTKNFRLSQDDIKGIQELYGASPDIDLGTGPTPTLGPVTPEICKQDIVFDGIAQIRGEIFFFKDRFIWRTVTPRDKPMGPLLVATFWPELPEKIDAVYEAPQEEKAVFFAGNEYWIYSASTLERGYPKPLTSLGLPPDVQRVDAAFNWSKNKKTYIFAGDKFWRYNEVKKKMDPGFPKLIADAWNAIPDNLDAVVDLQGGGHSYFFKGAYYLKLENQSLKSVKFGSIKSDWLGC
Text: as §1, §2, §3, §4, §5

MMP-3 catalytic domain = molecular target: T3, MMP-3 catalytic domain (Homo sapiens, UniProt P08254); experiment: Thiopeptolide hydrolysis inhibition assay, MMP-3 catalytic domain; type: biochemical; conditions: thiopeptolide substrate, MES pH 6.0; read-out: MMP-3CD IC50
T3 construct: MMP-3 catalytic domain
T3 sequence (P08254 100-272 limits assumed, species assumed): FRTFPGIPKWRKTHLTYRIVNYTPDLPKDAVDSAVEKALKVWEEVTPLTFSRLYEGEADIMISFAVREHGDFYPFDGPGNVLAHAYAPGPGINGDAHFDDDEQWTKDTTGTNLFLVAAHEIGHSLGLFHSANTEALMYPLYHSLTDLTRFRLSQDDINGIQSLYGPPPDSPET
Text: as §1, §2, §3
The assay buffer used with MMP-3CD was 50 mM N-morpholinoethane sulfonate (“MES”) at pH 6.0 rather than the HEPES buffer at pH 7.0 described above.
The test described above for the inhibition of MMP-13 may also be adapted and used to determine the ability of the compounds of formula (I) to inhibit the matrix metalloproteases MMP-1, MMP-2, MMP-3, MMP-7, MMP-9, MMP-12, MMP-14, and MMP-17. […]

MMP-12 catalytic domain = molecular target: T4, MMP-12 catalytic domain (Homo sapiens, UniProt P39900); experiment: Thiopeptolide hydrolysis inhibition assay, MMP-12 catalytic domain; type: biochemical; conditions: thiopeptolide substrate; read-out: MMP-12CD IC50
T4 construct: MMP-12 catalytic domain
T4 sequence (P39900 106-263 limits assumed, species assumed): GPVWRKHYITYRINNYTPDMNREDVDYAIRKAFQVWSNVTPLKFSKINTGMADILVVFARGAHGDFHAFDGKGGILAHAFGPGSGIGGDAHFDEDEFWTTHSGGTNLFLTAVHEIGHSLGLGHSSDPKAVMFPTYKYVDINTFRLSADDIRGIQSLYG
Text: as §1, §2, §3, §4, §5

MMP-9 full-length = molecular target: T5, MMP-9 full-length (Homo sapiens, UniProt P14780); experiment: Thiopeptolide hydrolysis inhibition assay, MMP-9 full-length; type: biochemical; conditions: thiopeptolide substrate; read-out: MMP-9FL IC50
T5 construct: MMP-9 full-length
T5 sequence (P14780 94-707, species assumed): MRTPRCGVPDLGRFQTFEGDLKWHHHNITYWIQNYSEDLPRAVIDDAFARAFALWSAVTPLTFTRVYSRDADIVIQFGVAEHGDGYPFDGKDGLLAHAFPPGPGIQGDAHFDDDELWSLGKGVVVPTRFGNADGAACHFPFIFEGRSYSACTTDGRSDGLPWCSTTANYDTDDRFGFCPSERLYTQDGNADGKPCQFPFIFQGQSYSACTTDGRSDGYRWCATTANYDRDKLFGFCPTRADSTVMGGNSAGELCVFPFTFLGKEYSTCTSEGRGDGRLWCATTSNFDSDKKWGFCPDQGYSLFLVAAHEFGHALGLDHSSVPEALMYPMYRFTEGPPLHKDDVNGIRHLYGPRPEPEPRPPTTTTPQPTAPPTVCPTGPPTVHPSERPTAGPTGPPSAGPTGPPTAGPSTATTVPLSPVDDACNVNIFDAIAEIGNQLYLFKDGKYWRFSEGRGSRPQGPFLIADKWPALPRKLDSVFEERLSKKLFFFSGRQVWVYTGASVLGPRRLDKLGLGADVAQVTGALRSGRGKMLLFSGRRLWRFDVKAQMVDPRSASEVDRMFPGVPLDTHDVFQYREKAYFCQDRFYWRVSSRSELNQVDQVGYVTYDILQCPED
Text: as §1, §2, §3, §4, §5

MMP-7 full-length = molecular target: T6, MMP-7 full-length (Homo sapiens, UniProt P09237); experiment: Thiopeptolide hydrolysis inhibition assay, MMP-7 full-length; type: biochemical; conditions: thiopeptolide substrate; read-out: MMP-7FL IC50
T6 construct: MMP-7 full-length
T6 sequence (P09237 95-267): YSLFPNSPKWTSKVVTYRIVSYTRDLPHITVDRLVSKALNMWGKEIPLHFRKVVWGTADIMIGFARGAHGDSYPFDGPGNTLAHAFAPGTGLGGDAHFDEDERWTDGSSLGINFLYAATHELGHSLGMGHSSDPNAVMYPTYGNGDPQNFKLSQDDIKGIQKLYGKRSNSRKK
Text: as §1, §2, §3, §4, §5

MMP-8 catalytic domain = molecular target: T7, MMP-8 catalytic domain (Homo sapiens, UniProt P22894); experiment: Thiopeptolide hydrolysis inhibition assay, MMP-8 catalytic domain; type: biochemical; conditions: thiopeptolide substrate; read-out: MMP-8CD IC50
T7 construct: MMP-8 catalytic domain
T7 sequence (P22894 100-262 limits assumed, species assumed): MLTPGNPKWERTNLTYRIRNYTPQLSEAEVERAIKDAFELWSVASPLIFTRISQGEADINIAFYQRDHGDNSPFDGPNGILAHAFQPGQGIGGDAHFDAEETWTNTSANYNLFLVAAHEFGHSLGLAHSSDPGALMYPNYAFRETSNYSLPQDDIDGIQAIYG
Text: as §1, §2, §3, §5

IC50 [1] [µM]	solubility [2] [mg/mL]	IC50 (MMP-1 full-length) [µM]	IC50 (MMP-2 full-length) [µM]	IC50 (MMP-3 catalytic domain) [µM]	IC50 (MMP-12 catalytic domain) [µM]	IC50 (MMP-9 full-length) [µM]	IC50 (MMP-7 full-length) [µM]	IC50 (MMP-8 catalytic domain) [µM]	SMILES
1.5	1.2 (≈ 2570 µM)								Cc1cc(-c2nnn(CC(=O)N3CCCC3C(=O)O)n2)cc(C(=O)NCc2ccc(F)cc2)n1 (stereo not drawn) [Example 3]
0.041	0.58 (≈ 1360 µM)	> 100	> 100	> 100	> 100	> 100	> 100	> 100	Cc1cc(-c2nnn(CC(=O)NCC(=O)O)n2)cc(C(=O)NCc2ccc(F)cc2)n1 [Example 1, (2-{5-[2-(4-fluoro-benzylcarbamoyl)-6-methyl-pyridin-4-yl]-tetrazol-2-yl}-acetylamino)-acetic acid]
4.5	0.88 (≈ 2380 µM)								Cc1cc(-c2nnn(CC(=O)O)n2)cc(C(=O)NCc2ccc(F)cc2)n1 [Example I2, {5-[2-(4-fluoro-benzylcarbamoyl)-6-methyl-pyridin-4-yl]-tetrazol-2-yl}-acetic acid]
5.2		> 100	> 100	> 100	> 100	> 100	> 100	> 100	O=C(O)C1CCCN(CCCn2nnc(-c3cccc(C#CCc4ccc(F)cc4)c3)n2)C1 (stereo not drawn) [Example 4]
0.039	0.22 (≈ 498 µM)	> 100	75	> 100	> 100	> 100	> 100	> 100	Cc1cc(-c2nnn(CC(=O)NCCC(=O)O)n2)cc(C(=O)NCc2ccc(F)cc2)n1 [Example 2, 3-(2-{5-[2-(4-Fluoro-benzylcarbamoyl)-6-methyl-pyridin-4-yl]-tetrazol-2-yl}-acetylamino)-propionic acid]

— patent US20090137637A1, “Tetrazolyl-Methylene Amino Acid Derivatives” (PFIZER INC., priority 2005, published 2009)
